Laboratory results published in ChEMBL document CHEMBL2150873, “Identification of imidazo-pyrrolopyridines as novel and potent JAK1 inhibitors” (J Med Chem, 2012).

Test system: not listed separately
Experiment: Lipophilicity, log D of the compound after 1 hr by LC/MS/MS analysis at pH 7.2
Format: physicochemical
Conditions: buffer

logD at 1 h | SMILES
1.9 | COC(=O)N[C@H]1CC[C@H](n2cnc3cnc4[nH]ccc4c32)CC1
1.04 | CS(=O)(=O)N1CCC(n2cnc3cnc4[nH]ccc4c32)CC1
1.72 | N#CCCN1CCC(n2cnc3cnc4[nH]ccc4c32)CC1
1.14 | CC1(n2cnc3cnc4[nH]ccc4c32)CCN(S(C)(=O)=O)CC1
1.2 | COC(=O)N[C@@H]1CC[C@@H](n2cnc3cnc4[nH]ccc4c32)C1 (racemic)

The next lines start with the molecule.

SMILES | logD at 1 h
CC(C)(C)OC(=O)N[C@@H]1CC[C@@H](n2cnc3cnc4[nH]ccc4c32)C1 | 2.99
N#CCC(=O)N1CCC[C@@H](n2cnc3cnc4[nH]ccc4c32)C1 | 0.39
c1ccc(CN2CCC(n3cnc4cnc5[nH]ccc5c43)CC2)cc1 | 2.9
CC(C)(C)OC(=O)N[C@H]1CC[C@H](n2cnc3cnc4[nH]ccc4c32)CC1 | 3.2
N[C@H]1CC[C@H](n2cnc3cnc4[nH]ccc4c32)CC1 | -0.44
N#CCCN[C@H]1CC[C@H](n2cnc3cnc4[nH]ccc4c32)CC1 | 0.97

Test system: not listed separately
Experiment: Apparent permeability from apical to basal side of MDCK cells at 10 uM
Format: ADME, cell-based, Canis lupus familiaris
Conditions: dog

Papp A→B at 10 µM | SMILES
1.2 ×10⁻⁶ cm/s | CS(=O)(=O)N1CCC(n2cnc3cnc4[nH]ccc4c32)CC1
8.2 ×10⁻⁶ cm/s | N#CCCN1CCC(n2cnc3cnc4[nH]ccc4c32)CC1
2.5 ×10⁻⁶ cm/s | CC1(n2cnc3cnc4[nH]ccc4c32)CCN(S(C)(=O)=O)CC1

The remaining lines, values behind:

SMILES | Papp A→B at 10 µM
CC(C)(C)OC(=O)N[C@@H]1CC[C@@H](n2cnc3cnc4[nH]ccc4c32)C1 | 11.2 ×10⁻⁶ cm/s
N#CCC(=O)N1CCC[C@@H](n2cnc3cnc4[nH]ccc4c32)C1 | 0.3 ×10⁻⁶ cm/s
c1ccc(CN2CCC(n3cnc4cnc5[nH]ccc5c43)CC2)cc1 | 32.3 ×10⁻⁶ cm/s
N[C@H]1CC[C@H](n2cnc3cnc4[nH]ccc4c32)CC1 | 0.2 ×10⁻⁶ cm/s
N#CCCN[C@H]1CC[C@H](n2cnc3cnc4[nH]ccc4c32)CC1 | 1.5 ×10⁻⁶ cm/s

Test system: not listed separately
Experiment: Half life in Sprague-Dawley rat hepatocytes at 1 uM by LC/MS/MS analysis
Format: ADME, cell-based, Liver, Hepatocyte
Conditions: not given

half-life at 1 µM | SMILES
> 10 h | CS(=O)(=O)N1CCC(n2cnc3cnc4[nH]ccc4c32)CC1
> 10 h | N#CCCN1CCC(n2cnc3cnc4[nH]ccc4c32)CC1
> 10 h | CC1(n2cnc3cnc4[nH]ccc4c32)CCN(S(C)(=O)=O)CC1

Second part, the molecule before the results:

SMILES | half-life at 1 µM
CC(C)(C)OC(=O)N[C@@H]1CC[C@@H](n2cnc3cnc4[nH]ccc4c32)C1 | 2.2 h
N#CCC(=O)N1CCC[C@@H](n2cnc3cnc4[nH]ccc4c32)C1 | > 10 h
c1ccc(CN2CCC(n3cnc4cnc5[nH]ccc5c43)CC2)cc1 | 0.5 h
N[C@H]1CC[C@H](n2cnc3cnc4[nH]ccc4c32)CC1 | > 10 h
N#CCCN[C@H]1CC[C@H](n2cnc3cnc4[nH]ccc4c32)CC1 | 9.8 h

Test system: not listed separately
Experiment: Dose normalized clearance in Sprague-Dawley rat at 1 mg/kg, iv
Format: ADME, organism-based
Set-up: dose 1 mg/kg, route intravenous
Conditions: in vivo, read-out: Dose normalized clearance

clearance | SMILES
45 mL/min/kg | CS(=O)(=O)N1CCC(n2cnc3cnc4[nH]ccc4c32)CC1
96 mL/min/kg | N#CCCN1CCC(n2cnc3cnc4[nH]ccc4c32)CC1
82 mL/min/kg | CC1(n2cnc3cnc4[nH]ccc4c32)CCN(S(C)(=O)=O)CC1

More lines, now with the values behind:

SMILES | clearance
CC(C)(C)OC(=O)N[C@@H]1CC[C@@H](n2cnc3cnc4[nH]ccc4c32)C1 | 140 mL/min/kg
N#CCC(=O)N1CCC[C@@H](n2cnc3cnc4[nH]ccc4c32)C1 | 85 mL/min/kg
c1ccc(CN2CCC(n3cnc4cnc5[nH]ccc5c43)CC2)cc1 | 170 mL/min/kg
N[C@H]1CC[C@H](n2cnc3cnc4[nH]ccc4c32)CC1 | 65 mL/min/kg
N#CCCN[C@H]1CC[C@H](n2cnc3cnc4[nH]ccc4c32)CC1 | 120 mL/min/kg

Test system: Rattus norvegicus
Experiment: Dose normalized AUC in Sprague-Dawley rat at 5 mg/kg, po
Format: ADME, organism-based
Set-up: dose 5 mg/kg, route oral
Conditions: in vivo

AUC/dose | SMILES
2.3 µM·h | CS(=O)(=O)N1CCC(n2cnc3cnc4[nH]ccc4c32)CC1
1.6 µM·h | N#CCCN1CCC(n2cnc3cnc4[nH]ccc4c32)CC1
2.3 µM·h | CC1(n2cnc3cnc4[nH]ccc4c32)CCN(S(C)(=O)=O)CC1

Second part, the molecule before the results:

SMILES | AUC/dose
CC(C)(C)OC(=O)N[C@@H]1CC[C@@H](n2cnc3cnc4[nH]ccc4c32)C1 | 1.3 µM·h
N#CCC(=O)N1CCC[C@@H](n2cnc3cnc4[nH]ccc4c32)C1 | 0.3 µM·h
N[C@H]1CC[C@H](n2cnc3cnc4[nH]ccc4c32)CC1 | 0.22 µM·h
N#CCCN[C@H]1CC[C@H](n2cnc3cnc4[nH]ccc4c32)CC1 | 0.7 µM·h

Test system: Rattus norvegicus
Experiment: Dose normalized Cmax in Sprague-Dawley rat at 5 mg/kg, po
Format: ADME, organism-based
Set-up: dose 5 mg/kg, route oral
Conditions: in vivo

Cmax/dose | SMILES
2900 nM | CS(=O)(=O)N1CCC(n2cnc3cnc4[nH]ccc4c32)CC1
1800 nM | N#CCCN1CCC(n2cnc3cnc4[nH]ccc4c32)CC1
800 nM | CC1(n2cnc3cnc4[nH]ccc4c32)CCN(S(C)(=O)=O)CC1

Second part, the molecule before the results:

SMILES | Cmax/dose
CC(C)(C)OC(=O)N[C@@H]1CC[C@@H](n2cnc3cnc4[nH]ccc4c32)C1 | 1100 nM
N#CCC(=O)N1CCC[C@@H](n2cnc3cnc4[nH]ccc4c32)C1 | 50 nM
c1ccc(CN2CCC(n3cnc4cnc5[nH]ccc5c43)CC2)cc1 | 40 nM
N[C@H]1CC[C@H](n2cnc3cnc4[nH]ccc4c32)CC1 | 20 nM
N#CCCN[C@H]1CC[C@H](n2cnc3cnc4[nH]ccc4c32)CC1 | 600 nM

Test system: not listed separately
Experiment: Dose normalized volume of distribution at steady state in Sprague-Dawley rat at 1 mg/kg, iv and 5 mg/kg, po
Format: ADME, organism-based
Conditions: in vivo, read-out: Vdss/dose

Vd | SMILES
1.46 L/kg | CS(=O)(=O)N1CCC(n2cnc3cnc4[nH]ccc4c32)CC1
2.37 L/kg | N#CCCN1CCC(n2cnc3cnc4[nH]ccc4c32)CC1
2.72 L/kg | CC1(n2cnc3cnc4[nH]ccc4c32)CCN(S(C)(=O)=O)CC1

The next lines start with the molecule.

SMILES | Vd
CC(C)(C)OC(=O)N[C@@H]1CC[C@@H](n2cnc3cnc4[nH]ccc4c32)C1 | 2.53 L/kg
N#CCC(=O)N1CCC[C@@H](n2cnc3cnc4[nH]ccc4c32)C1 | 1.87 L/kg
c1ccc(CN2CCC(n3cnc4cnc5[nH]ccc5c43)CC2)cc1 | 6.39 L/kg
N[C@H]1CC[C@H](n2cnc3cnc4[nH]ccc4c32)CC1 | 13.9 L/kg
N#CCCN[C@H]1CC[C@H](n2cnc3cnc4[nH]ccc4c32)CC1 | 3.96 L/kg

Test system: not listed separately
Experiment: Dose normalized oral bioavailability in Sprague-Dawley rat at 5 mg/kg
Format: ADME, organism-based
Conditions: in vivo, read-out: F/dose

bioavailability | SMILES
36% | CS(=O)(=O)N1CCC(n2cnc3cnc4[nH]ccc4c32)CC1
48% | N#CCCN1CCC(n2cnc3cnc4[nH]ccc4c32)CC1
74% | CC1(n2cnc3cnc4[nH]ccc4c32)CCN(S(C)(=O)=O)CC1

The next lines start with the molecule.

SMILES | bioavailability
CC(C)(C)OC(=O)N[C@@H]1CC[C@@H](n2cnc3cnc4[nH]ccc4c32)C1 | 73%
N#CCC(=O)N1CCC[C@@H](n2cnc3cnc4[nH]ccc4c32)C1 | 5%
c1ccc(CN2CCC(n3cnc4cnc5[nH]ccc5c43)CC2)cc1 | < 1%
N[C@H]1CC[C@H](n2cnc3cnc4[nH]ccc4c32)CC1 | < 1%
N#CCCN[C@H]1CC[C@H](n2cnc3cnc4[nH]ccc4c32)CC1 | 28%

Test system: Liver microsomes
Experiment: not given
Conditions: human

t1/2 | SMILES
5.6 h | CC(C)(C)OC(=O)N[C@@H]1CC[C@@H](n2cnc3cnc4[nH]ccc4c32)C1

Test system: not listed separately
Experiment: in vitro
Conditions: human, liver microsomes, t1/2

half-life | SMILES
> 10 h | COC(=O)N[C@H]1CC[C@H](n2cnc3cnc4[nH]ccc4c32)CC1
4 h | c1ncc(CN2CCC(n3cnc4cnc5[nH]ccc5c43)CC2)cn1
2 h | N#CCC(=O)N1CCC(n2cnc3cnc4[nH]ccc4c32)CC1
2.2 h | CS(=O)(=O)N1CCC(n2cnc3cnc4[nH]ccc4c32)CC1
2.5 h | CCN1CCC(n2cnc3cnc4[nH]ccc4c32)CC1
3.8 h | FC(F)(F)CN1CCC(n2cnc3cnc4[nH]ccc4c32)CC1
7.5 h | N#CCCN1CCC(n2cnc3cnc4[nH]ccc4c32)CC1
2.8 h | CN1CCC[C@@H]1C(=O)N1CCC(n2cnc3cnc4[nH]ccc4c32)CC1
4.7 h | CN1CCC[C@H]1C(=O)N1CCC(n2cnc3cnc4[nH]ccc4c32)CC1
1.3 h | CC(C)N1CCC[C@H]1C(=O)N1CCC(n2cnc3cnc4[nH]ccc4c32)CC1
> 10 h | CC1(n2cnc3cnc4[nH]ccc4c32)CCNCC1
> 10 h | CC1(n2cnc3cnc4[nH]ccc4c32)CCN(S(C)(=O)=O)CC1
1.6 h | CC1(n2cnc3cnc4[nH]ccc4c32)CCN(CC(F)(F)F)CC1
2.3 h | CC1(n2cnc3cnc4[nH]ccc4c32)CCN(CCC#N)CC1
5.5 h | N[C@H]1CC[C@@H](n2cnc3cnc4[nH]ccc4c32)CC1
3.7 h | c1cc2c(ncc3ncn([C@H]4CC[C@@H](N5CCOCC5)CC4)c32)[nH]1
2.7 h | CC(C)C(=O)N[C@H]1CC[C@H](n2cnc3cnc4[nH]ccc4c32)CC1
4.7 h | c1cc2c(ncc3ncn([C@H]4CC[C@H](NCC5CC5)CC4)c32)[nH]1
5.8 h | COC(=O)N[C@@H]1CC[C@@H](n2cnc3cnc4[nH]ccc4c32)C1 (racemic)
1.8 h | CC(C)(C)OC(=O)N[C@H]1CC[C@@H](n2cnc3cnc4[nH]ccc4c32)C1 (racemic)

Continued, molecule first:

SMILES | half-life
N#CCC(=O)N1CCC[C@@H](n2cnc3cnc4[nH]ccc4c32)C1 | 1.4 h
c1ccc(CN2CCC(n3cnc4cnc5[nH]ccc5c43)CC2)cc1 | 0.8 h
O=C(c1ccccc1)N1CCC(n2cnc3cnc4[nH]ccc4c32)CC1 | 1.4 h
CC(C)CC(=O)N1CCC(n2cnc3cnc4[nH]ccc4c32)CC1 | 0.5 h
O=S(=O)(c1ccccc1)N1CCC(n2cnc3cnc4[nH]ccc4c32)CC1 | 0.7 h
CN(C)CC(=O)N1CCC(n2cnc3cnc4[nH]ccc4c32)CC1 | 1.5 h
CN1CCCC[C@H]1C(=O)N1CCC(n2cnc3cnc4[nH]ccc4c32)CC1 | 3.5 h
CC1(n2cnc3cnc4[nH]ccc4c32)CCN(Cc2cncnc2)CC1 | 1.6 h
CC(C)(C)OC(=O)N[C@H]1CC[C@H](n2cnc3cnc4[nH]ccc4c32)CC1 | 1.5 h
N[C@H]1CC[C@H](n2cnc3cnc4[nH]ccc4c32)CC1 | 3.7 h
c1cc2c(ncc3ncn([C@H]4CC[C@H](N5CCOCC5)CC4)c32)[nH]1 | 6.8 h
N#CCCN[C@H]1CC[C@H](n2cnc3cnc4[nH]ccc4c32)CC1 | 5 h
N#Cc1cccc(CN[C@H]2CC[C@H](n3cnc4cnc5[nH]ccc5c43)CC2)c1 | 0.8 h
CS(=O)(=O)N[C@H]1CC[C@H](n2cnc3cnc4[nH]ccc4c32)CC1 | 1.8 h
COC(=O)N(C)[C@H]1CC[C@H](n2cnc3cnc4[nH]ccc4c32)CC1 | > 10 h
CC(C)(C)OC(=O)N[C@@H]1CC[C@@H](n2cnc3cnc4[nH]ccc4c32)C1 (racemic) | 5.5 h
